Columns and labels:
[1] = test system: DOI-induced headshakes in male NIH Swiss mice; assay: DOI-Induced Headshake Model; format: in vivo; settings: for % Inhibition (% Inh.) of DOI-induced headshakes: 45 min before DOI 5 mg/kg ip, percent suppression compared to vehicle group; for maximal suppression of DOI-induced headshakes: at the 100 mg/kg dose, oral, DOI 5 mg/kg ip
Protocol: DOI-Induced Headshake Model
The administration of DOI to rodents has been used as a model for assessing potential efficacy of an atypical antipsychotic in treating psychosis and schizophrenia in certain patient populations with direct or indirect defects in the serotonin system.
Male NIH Swiss mice weighing 18-21 grams at the time of purchase were obtained from Harlan Sprague Dawley, Inc. (Prattville, Ala.). They were individually housed in wire-mesh cages at an ambient temperature of 21 to 23° C. with an automated 12/12 hour light/dark cycle. All […] had free access to 5001 Rodent Chow (Purina Mills, Brentwood, Mo.) and water except during experimental sessions. The principles of laboratory animal care (NIH publication No. 85-23, revised 1985) were followed.
DOI (purchased from Sigma, St. Louis, Mo.) was dissolved in saline, neutralized to pH ˜7.4 and injected ip in a volume of 10 ml/kg body weight. Injection solution was freshly prepared 30-45 minutes before each experiment. Methylcellulose (0.5%, Sigma) was used as oral dosing vehicle. All experiments were performed between 10 am and 4 pm during the day. The mice were fasted the evening before the experiment.
An enantiomer of Formula (Ib), Formula (IIb) or vehicle was orally administered at various concentrations ranging from 10 μg to 100 mg/kg. The animals were then injected with either saline or DOI (ip, 5 mg/kg) 45 minutes after the administration of either vehicle or an enantiomer of Formula (Ib) or Formula (IIb). Immediately upon DOI administration, the mice were placed in isolated observation cylinders made of a clear polycarbonate (27 cm in diameter and 55 cm deep). The number of randomized headshakes (or twitches) was recorded by an experienced observer using a hand held mechanical counter. Headshake responses were counted in consecutive 10-min periods.
DOI-Induced Headshake Model Analysis
All data are expressed as the mean ±SEM. The average of the headshakes in the vehicle group was expressed as 100%. The DOI-induced headshakes in groups treated with an enantiomer of Formula (Ib) and Formula (IIb) were expressed as percent suppression compared to the vehicle group. Statistical analysis for significant differences was done with the Student t test.

[2] = test system: PPI-disruptive effects of PCP in Sprague-Dawley-derived male rats; assay: Pre-Pulse Inhibition Model (PCP-disrupted PPI); format: in vivo
Description: Pre-Pulse Inhibition Model
The restorative effect of an enantiomer of Formula (Ib) on Pre-Pulse Inhibition (PPI) was compared to the disruptive PPI effect of phencyclidine (PCP). PCP is a NMDA antagonist having a wide range of psychotominetic effects in humans. The PPI disruption caused by PCP can be restored by some atypical antipsychotics, such as clozapine, olanzapine, and quetiapine.
Sprague-Dawley-derived male rats were housed in groups of two or three and maintained in a temperature-controlled environment on a 12 h:12 h light cycle. Except during behavioral testing, animals were given free access to food and water. Animals were handled daily for several days to desensitize them to handling stress before behavioral analysis.
An SR-LAB Startle System was used to control auditory stimuli and background noise level and to monitor startle response (±one msec). The average amplitude of the response was the main dependent variable used. Animals (n=20) were grouped according to a baseline mean PPI determined in a brief matching session. Baseline mean PPI testing consisted of 12 noise bursts at 118 dB[A] over a 40 msec time period followed by 3 noise bursts at 12 dB[A] over a 40 msec time period two days before testing with drug. […]
Data were collected online simultaneously from multiple startle chambers and analyzed using the Statview 5.0 statistical package.

NC(=O)OC[C@H](OC(N)=O)c1ccccc1Cl [Formula (IIb)]
% Inhibition (% Inh.) of DOI-induced headshakes ([1]; 0.01 mg/Kg oral): 1% | % Inhibition (% Inh.) of DOI-induced headshakes ([1]; 0.1 mg/Kg oral): 11% | % Inhibition (% Inh.) of DOI-induced headshakes ([1]; 1 mg/Kg oral): 4% | % Inhibition (% Inh.) of DOI-induced headshakes ([1]; 10 mg/Kg oral): 41% | % Inhibition (% Inh.) of DOI-induced headshakes ([1]; 30 mg/Kg oral): 36% | % Inhibition (% Inh.) of DOI-induced headshakes ([1]; 100 mg/Kg oral): 43% | maximal suppression of DOI-induced headshakes [1]: 43%

NC(=O)OC[C@@H](O)c1ccccc1Cl [Formula (Ib)]
dose-dependent reduction in startle magnitude ([2]; 5, 15 and 45 mg/kg p.o.): lacked an orderly dose-dependent reduction in startle magnitude | block of the PPI-disruptive effects of PCP ([2]; acute treatment 5, 15 and 45 mg/kg p.o., 110 min before PCP 1.5 mg/kg s.c.): failed to significantly block the PPI-disruptive effects of PCP | % Inhibition (% Inh.) of DOI-induced headshakes ([1]; 0.01 mg/Kg oral): 11% | % Inhibition (% Inh.) of DOI-induced headshakes ([1]; 0.1 mg/Kg oral): 20% | % Inhibition (% Inh.) of DOI-induced headshakes ([1]; 1 mg/Kg oral): 41% | % Inhibition (% Inh.) of DOI-induced headshakes ([1]; 10 mg/Kg oral): 63% | % Inhibition (% Inh.) of DOI-induced headshakes ([1]; 30 mg/Kg oral): 58% | % Inhibition (% Inh.) of DOI-induced headshakes ([1]; 100 mg/Kg oral): 76% | maximal suppression of DOI-induced headshakes [1]: 76%

Reference: patent US6541513B2, “Carbamate compounds for use in preventing or treating psychotic disorders” (Ortho-McNeil Pharmaceutical, Inc., priority 2001, dated 2003)
